Laboratory results: ChEMBL document CHEMBL6121063, “Identification of a Potent and Selective CDK9 Degrader as a Targeted Therapeutic Option for the Treatment of Small-Cell Lung Cancer” (J Med Chem, 2025)
Calls of active or inactive are those of the source. The calls are words filed in the database; no cut-off is given here.

What was measured:
[1] = target: Cyclin-dependent kinase 9 (Homo sapiens) (UniProt P50750); assay: Inhibition of CDK9-related signaling in human NCI-H69 cells assessed as decrease in RNA polymerase II phosphorylation at Ser5 residue at 0.5 to 10 nM incubated for 24 hrs by Western blot analysis; assay type: cell-based; settings: dose 0.5-10 nM
[2] = target: CDK12/Cyclin K (Homo sapiens) (UniProt O75909+Q9NYV4); assay: Inhibition of CDK12/Cyclin K (unknown origin) at 10 nM relative to control; assay type: protein-complex assay
[3] = target: CDK4/Cyclin D3 (Homo sapiens) (UniProt P11802+P30281); assay: Inhibition of CDK4/cyclin D3 (unknown origin) at 10 nM relative to control; assay type: protein-complex assay
[4] = target: Cyclin-dependent kinase 13/Cyclin-K (Homo sapiens) (UniProt Q14004+O75909); assay: Inhibition of CDK13/Cyclin K (unknown origin) at 10 nM relative to control; assay type: protein-complex assay
[5] = tested on: NCI-H69; assay: Induction of apoptosis in human NCI-H69 cells assessed as increase in cleaved caspase-3 level incubated for 36 hrs by Western blot analysis; assay type: functional, cell-based
[6] = tested on: NCI-H69; assay: Induction of apoptosis in human NCI-H69 cells assessed as decrease in BCL-2 expression incubated for 36 hrs by Western blot analysis; assay type: functional, cell-based
[7] = target: T1, Protein cereblon/Cyclin-dependent kinase 9 (Homo sapiens, UniProt P50750+Q96SW2); assay: PROTAC activity at CRBN/CDK9 in human NCI-H69 cells assessed as induction of CDK9 degradation preincubated with AT-7519 for 2 hrs followed by compound addition and measured after 3 hrs by Western blot analysis; assay type: cell-based
[8] = target: T1, Protein cereblon/Cyclin-dependent kinase 9; assay: PROTAC activity at CRBN/CDK9 in human NCI-H69 cells assessed as induction of CDK9 degradation preincubated with thalidomide for 2 hrs followed by compound addition and measured after 3 hrs by Western blot analysis; assay type: cell-based
[9] = target: Cyclin-dependent kinase 1/cyclin B1 (Homo sapiens) (UniProt P06493+P14635); assay: Inhibition of CDK1/cyclin B1 (unknown origin) at 10 nM relative to control; assay type: protein-complex assay
[10] = target: T1, Protein cereblon/Cyclin-dependent kinase 9; assay: PROTAC activity at CRBN/CDK9 in human NCI-H446 cells assessed as induction of CDK9 degradation by measuring reduction in half-life incubated upto 24 hrs in presence of cycloheximide by Western blot analysis; assay type: cell-based
[11] = target: T1, Protein cereblon/Cyclin-dependent kinase 9; assay: PROTAC activity at CRBN/CDK9 in human NCI-H446 cells assessed as induction of CDK9 degradation at 10 nM by Western blot analysis relative to control; assay type: cell-based
[12] = tested on: NCI-H69; assay: Cell cycle arrest in human NCI-H69 cells assessed as increase in G1 phase population incubated for 36 hrs by PI staining based flow cytometric analysis; assay type: functional; settings: dose 0.5-4 nM
[13] = tested on: Small cell lung cancer cell line; assay: Antitumor activity against LDI-0025-362145 patient derived Small cell lung cancer cell line xenografted in BALB/c nude mouse assessed as reduction in tumor growth at 25 mg/kg, po administered once daily for 7 days; assay type: functional, organism-based; settings: Homo sapiens, time 7.0 day
[14] = target: CDK9/cyclin T1 (Homo sapiens) (UniProt O60563+P50750); assay: Inhibition of CDK9/Cyclin T1 (unknown origin) at 10 nM relative to control; assay type: protein-complex assay
[15] = tested on: NCI-H446; assay: Antitumor activity against human NCI-H446 cells xenografted in female NU-NU mouse model assessed as increase in cleaved caspase-3 expression in tumor at 12.5 to 25 mg/kg, po administered once daily for 15 days by immunohistochemical staining based analysis; assay type: functional, organism-based; settings: dose 12.5-25 mg/kg, time 15.0 day
[16] = target: T1, Protein cereblon/Cyclin-dependent kinase 9; assay: PROTAC activity at CRBN/CDK9 in human NCI-H69 cells assessed as induction of CDK9 degradation at 10 nM by Western blot analysis; assay type: cell-based; settings: time 0.5-12 hrs
[17] = tested on: DMS-114; assay: Inhibition of cell invasion in human DMS-114 cells assessed as decrease in number of cells passing through upper chamber at 2to 4 nM incubated for 48 hrs by crystal violet staining based microscopic analysis; assay type: functional
[18] = target: T1, Protein cereblon/Cyclin-dependent kinase 9; assay: In vivo PROTAC activity at CRBN/CDK9 in female NU/NU mouse model xenografted with human NCI-H446 cells assessed as decrease in CDK9 expression in tumor at 12.5 to 25 mg/kg, po administered once daily for 15 days by immunohistochemical staining based analysis; assay type: functional, organism-based; settings: dose 12.5-25 mg/kg, time 15.0 day
[19] = target: T1, Protein cereblon/Cyclin-dependent kinase 9; assay: PROTAC activity at CRBN/CDK9 in human NCI-H69 cells assessed as induction of CDK9 degradation preincubated with MG132 for 2 hrs followed by compound addition and measured after 3 hrs by Western blot analysis; assay type: cell-based
[20] = target: CDK6/cyclin D1 (Homo sapiens) (UniProt P24385+Q00534); assay: Inhibition of CDK6/cyclin D1 (unknown origin) at 10 nM relative to control; assay type: protein-complex assay
[21] = tested on: Small cell lung cancer cell line; assay: Antitumor activity against LDI-2025-362195 patient derived Small cell lung cancer cell line xenografted in BALB/c nude mouse assessed as reduction in tumor growth at 25 mg/kg, po administered once daily for 7 days; assay type: functional, organism-based; settings: Homo sapiens, time 7.0 day
[22] = target: Cyclin-dependent kinase 4/cyclin D1 (Homo sapiens) (UniProt P11802+P24385); assay: Inhibition of CDK4/cyclin D1 (unknown origin) at 10 nM relative to control; assay type: protein-complex assay
[23] = target: Cyclin-dependent kinase 2/cyclin E1 (Homo sapiens) (UniProt P24864+P24941); settings: dose 10.0 nM
[24] = tested on: NCI-H446; assay: Antiproliferative activity against human NCI-H446 cells assessed as reduction in cell viability incubated for 72 hrs in presence of thalidomide by celltiter-Glo assay; assay type: functional, cell-based
[25] = tested on: NCI-H69; assay: Induction of apoptosis in human NCI-H69 cells assessed as decrease in MCL-1 expression incubated for 36 hrs by Western blot analysis; assay type: functional, cell-based
[26] = target: T2, Cyclin-dependent kinase 5/CDK5 activator 1 (Homo sapiens) (UniProt Q00535+Q15078); assay: Inhibition of CDK5/p25NCK (unknown origin) at 10 nM relative to control; assay type: protein-complex assay
[27] = target: Cyclin-dependent kinase 9 (Homo sapiens) (UniProt P50750); assay: Inhibition of CDK9-related signaling in human NCI-H69 cells assessed as decrease in RNA polymerase II phosphorylation at Ser2 residue at 0.5 to 10 nM incubated for 24 hrs by Western blot analysis; assay type: cell-based; settings: dose 0.5-10 nM
[28] = tested on: NCI-H69; assay: Induction of apoptosis in human NCI-H69 cells at 1 nM by microscopic analysis; assay type: functional, cell-based
[29] = tested on: NCI-H446; assay: Inhibition of colony formation in human NCI-H446 cells at 2 to 4 nM incubated for 8 days by crystal violet staining based analysis; assay type: functional, cell-based; settings: dose 2-4 nM, time 8.0 day
[30] = target: T1, Protein cereblon/Cyclin-dependent kinase 9; assay: PROTAC activity at CRBN/CDK9 in human NCI-H69 cells assessed as induction of CDK9 degradation at 10 nM measured within 3 hrs by Western blot analysis; assay type: cell-based
[31] = target: T2, Cyclin-dependent kinase 5/CDK5 activator 1 (Homo sapiens); assay: Inhibition of CDK5/p35NCK (unknown origin) at 10 nM relative to control; assay type: protein-complex assay
[32] = tested on: NCI-H446; assay: Antitumor activity against human NCI-H446 cells expressing luciferase-GFP xenografted in female NU-NU mouse model assessed as decrease in systemic metastasis at 12.5 to 25 mg/kg, po administered for 19 days; assay type: functional, organism-based; settings: dose 12.5-25 mg/kg, time 19.0 day
[33] = target: T1, Protein cereblon/Cyclin-dependent kinase 9; assay: PROTAC activity at CRBN/CDK9 in human NCI-H69 cells assessed as induction of CDK9 degradation at 10 nM by Western blot analysis relative to control; assay type: cell-based

T1 sequence (P50750 whole entry, looked up): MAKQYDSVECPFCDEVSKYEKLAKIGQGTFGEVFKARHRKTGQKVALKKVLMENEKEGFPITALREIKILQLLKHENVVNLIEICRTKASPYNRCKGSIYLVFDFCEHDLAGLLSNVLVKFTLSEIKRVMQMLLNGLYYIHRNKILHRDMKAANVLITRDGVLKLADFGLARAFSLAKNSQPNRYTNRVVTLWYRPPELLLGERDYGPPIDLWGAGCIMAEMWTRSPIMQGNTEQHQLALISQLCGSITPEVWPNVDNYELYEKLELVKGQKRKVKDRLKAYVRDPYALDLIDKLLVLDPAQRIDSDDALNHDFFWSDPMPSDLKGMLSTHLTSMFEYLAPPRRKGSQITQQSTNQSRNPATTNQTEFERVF
T1 sequence (Q96SW2 whole entry, looked up): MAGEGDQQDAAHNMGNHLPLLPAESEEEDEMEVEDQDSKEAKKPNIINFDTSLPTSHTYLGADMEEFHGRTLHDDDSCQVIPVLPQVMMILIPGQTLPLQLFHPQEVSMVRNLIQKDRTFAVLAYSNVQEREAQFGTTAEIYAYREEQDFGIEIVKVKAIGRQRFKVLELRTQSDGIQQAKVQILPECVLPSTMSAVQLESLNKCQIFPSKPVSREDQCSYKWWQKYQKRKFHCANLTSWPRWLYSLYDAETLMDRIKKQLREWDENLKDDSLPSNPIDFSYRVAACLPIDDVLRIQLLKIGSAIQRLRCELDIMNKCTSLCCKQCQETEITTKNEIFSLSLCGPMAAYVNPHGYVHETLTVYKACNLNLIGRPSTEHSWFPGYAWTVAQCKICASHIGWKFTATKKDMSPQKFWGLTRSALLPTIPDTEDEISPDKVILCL
T2 sequence (Q00535 whole entry): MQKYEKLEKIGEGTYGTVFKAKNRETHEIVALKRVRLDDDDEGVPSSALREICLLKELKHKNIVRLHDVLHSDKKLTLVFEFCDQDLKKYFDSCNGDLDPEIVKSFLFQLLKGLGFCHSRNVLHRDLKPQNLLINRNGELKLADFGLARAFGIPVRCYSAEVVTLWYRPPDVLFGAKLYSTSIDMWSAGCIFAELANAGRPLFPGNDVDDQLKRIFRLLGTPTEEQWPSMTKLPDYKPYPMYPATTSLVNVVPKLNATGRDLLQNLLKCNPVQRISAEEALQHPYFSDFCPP
T2 sequence (Q15078 99-307 partner limits assumed): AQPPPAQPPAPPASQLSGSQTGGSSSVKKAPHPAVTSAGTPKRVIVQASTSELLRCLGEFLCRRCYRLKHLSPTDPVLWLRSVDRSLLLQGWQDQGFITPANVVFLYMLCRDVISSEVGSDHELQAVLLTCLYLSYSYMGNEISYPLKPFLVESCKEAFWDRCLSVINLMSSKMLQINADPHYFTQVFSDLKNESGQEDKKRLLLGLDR
Cyclin-dependent kinase 9 (Homo sapiens), sequence (P50750 whole entry): as the sequence (P50750 whole entry, looked up) above
Cyclin-dependent kinase 1/cyclin B1 (Homo sapiens), sequence (P06493 whole entry, looked up): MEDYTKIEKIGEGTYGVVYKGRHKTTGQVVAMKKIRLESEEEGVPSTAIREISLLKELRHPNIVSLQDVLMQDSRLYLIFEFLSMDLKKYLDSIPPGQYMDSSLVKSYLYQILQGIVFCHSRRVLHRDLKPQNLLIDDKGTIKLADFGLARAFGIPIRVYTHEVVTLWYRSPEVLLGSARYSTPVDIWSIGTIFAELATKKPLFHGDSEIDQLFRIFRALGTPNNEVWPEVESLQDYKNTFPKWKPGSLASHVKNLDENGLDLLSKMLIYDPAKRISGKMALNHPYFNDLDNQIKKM
Cyclin-dependent kinase 1/cyclin B1 (Homo sapiens), sequence (P14635 whole entry, looked up): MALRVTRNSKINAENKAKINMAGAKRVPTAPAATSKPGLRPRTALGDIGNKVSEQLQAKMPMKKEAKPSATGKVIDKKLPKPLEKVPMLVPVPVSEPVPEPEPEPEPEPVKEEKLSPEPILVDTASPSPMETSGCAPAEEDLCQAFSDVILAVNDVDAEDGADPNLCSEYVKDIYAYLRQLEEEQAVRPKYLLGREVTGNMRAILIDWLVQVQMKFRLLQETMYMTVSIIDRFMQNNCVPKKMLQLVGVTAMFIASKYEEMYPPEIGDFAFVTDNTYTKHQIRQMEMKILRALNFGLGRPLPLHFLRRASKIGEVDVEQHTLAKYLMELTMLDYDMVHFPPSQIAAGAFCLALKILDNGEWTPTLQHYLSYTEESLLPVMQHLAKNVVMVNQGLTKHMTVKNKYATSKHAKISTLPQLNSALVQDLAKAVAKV
CDK12/Cyclin K (Homo sapiens), sequence (O75909 whole entry, looked up): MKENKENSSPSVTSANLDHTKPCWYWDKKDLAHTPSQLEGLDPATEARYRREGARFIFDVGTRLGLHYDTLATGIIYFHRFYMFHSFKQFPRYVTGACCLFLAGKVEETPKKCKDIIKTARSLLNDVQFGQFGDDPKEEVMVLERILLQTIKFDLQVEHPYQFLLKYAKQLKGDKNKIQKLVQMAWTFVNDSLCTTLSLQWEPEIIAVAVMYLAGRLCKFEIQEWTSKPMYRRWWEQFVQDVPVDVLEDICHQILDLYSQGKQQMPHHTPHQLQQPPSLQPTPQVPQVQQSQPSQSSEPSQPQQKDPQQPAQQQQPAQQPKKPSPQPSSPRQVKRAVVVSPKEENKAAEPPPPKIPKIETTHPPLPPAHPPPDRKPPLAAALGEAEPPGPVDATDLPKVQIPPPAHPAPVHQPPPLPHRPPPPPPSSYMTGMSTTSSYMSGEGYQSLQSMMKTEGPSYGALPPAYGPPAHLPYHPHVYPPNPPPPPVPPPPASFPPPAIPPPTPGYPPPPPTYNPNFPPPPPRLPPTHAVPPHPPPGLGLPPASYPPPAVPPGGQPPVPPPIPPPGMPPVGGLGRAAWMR
CDK12/Cyclin K (Homo sapiens), sequence (Q9NYV4 whole entry, looked up): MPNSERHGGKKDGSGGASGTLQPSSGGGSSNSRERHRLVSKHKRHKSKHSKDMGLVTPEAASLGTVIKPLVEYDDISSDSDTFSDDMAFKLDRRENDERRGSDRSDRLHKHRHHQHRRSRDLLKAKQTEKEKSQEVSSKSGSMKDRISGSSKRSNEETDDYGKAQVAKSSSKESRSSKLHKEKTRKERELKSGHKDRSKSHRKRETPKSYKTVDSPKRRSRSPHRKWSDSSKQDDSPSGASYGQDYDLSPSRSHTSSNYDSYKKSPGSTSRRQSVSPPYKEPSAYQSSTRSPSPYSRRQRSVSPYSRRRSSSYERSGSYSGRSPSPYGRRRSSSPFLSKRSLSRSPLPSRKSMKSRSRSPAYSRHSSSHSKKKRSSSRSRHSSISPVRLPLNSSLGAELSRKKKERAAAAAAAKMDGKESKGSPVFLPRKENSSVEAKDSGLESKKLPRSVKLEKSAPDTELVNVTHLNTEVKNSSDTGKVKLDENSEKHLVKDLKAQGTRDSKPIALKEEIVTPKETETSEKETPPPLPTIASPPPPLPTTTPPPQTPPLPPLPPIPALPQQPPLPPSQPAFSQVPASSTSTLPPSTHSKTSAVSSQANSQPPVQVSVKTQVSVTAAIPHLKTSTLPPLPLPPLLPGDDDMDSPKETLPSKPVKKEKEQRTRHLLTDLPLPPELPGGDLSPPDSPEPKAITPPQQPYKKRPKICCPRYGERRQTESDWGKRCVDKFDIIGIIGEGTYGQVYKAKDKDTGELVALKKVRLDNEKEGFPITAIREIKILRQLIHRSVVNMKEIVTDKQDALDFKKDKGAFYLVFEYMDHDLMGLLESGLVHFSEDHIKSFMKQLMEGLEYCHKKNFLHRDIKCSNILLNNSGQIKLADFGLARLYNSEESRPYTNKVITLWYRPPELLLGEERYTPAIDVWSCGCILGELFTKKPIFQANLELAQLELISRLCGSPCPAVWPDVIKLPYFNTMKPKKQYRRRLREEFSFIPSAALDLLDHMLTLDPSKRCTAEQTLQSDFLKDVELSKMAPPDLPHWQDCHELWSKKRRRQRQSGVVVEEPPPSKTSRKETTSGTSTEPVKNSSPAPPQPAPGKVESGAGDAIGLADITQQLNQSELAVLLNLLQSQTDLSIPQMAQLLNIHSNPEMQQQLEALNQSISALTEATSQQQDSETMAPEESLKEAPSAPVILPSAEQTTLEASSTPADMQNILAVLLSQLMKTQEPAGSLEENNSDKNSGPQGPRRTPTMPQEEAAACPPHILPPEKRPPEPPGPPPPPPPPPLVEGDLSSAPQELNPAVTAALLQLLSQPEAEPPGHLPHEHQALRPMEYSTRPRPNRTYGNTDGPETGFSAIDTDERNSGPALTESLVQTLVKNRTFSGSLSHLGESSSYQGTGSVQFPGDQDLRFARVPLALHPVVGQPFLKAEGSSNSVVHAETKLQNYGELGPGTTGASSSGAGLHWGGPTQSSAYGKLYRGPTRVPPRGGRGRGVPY

O=C1CCC(Nc2cccc(N3CCN(CC4CCN(CC(=O)N5CCC(NC(=O)c6n[nH]cc6NC(=O)c6c(Cl)cccc6Cl)CC5)CC4)CC3)c2)C(=O)N1 (stereo not drawn)
inhibition [1]: Active
inhibition [2]: 38%
inhibition [3]: 55%
inhibition [4]: 56%
Activity [5]: Dose-dependent-effect
Activity [6]: Dose-dependent-effect
Activity [7]: inactive
Activity [8]: inactive
inhibition [9]: 46%
Activity [10]: Active
Activity [11]: 93.4%
Activity [12]: Dose-dependent-effect
Activity [13]: Active
inhibition [14]: 95%
Activity [15]: Active
Activity [16]: Time-dependent-effect
inhibition [17]: Active
Activity [18]: Active
Activity [19]: inactive
inhibition [20]: 34%
Activity [21]: Active
inhibition [22]: 37%
inhibition [23]: 35%
Activity [24]: inactive
Activity [25]: Dose-dependent-effect
inhibition [26]: 52%
inhibition [27]: Active
Activity [28]: Active
inhibition [29]: Active
Activity [30]: Active
inhibition [31]: 45%
Activity [32]: Active
Activity [33]: 91.2%
